Consider seven molecules from ChEMBL document CHEMBL4014286, “Discovery of orally active hepatoselective glucokinase activators for treatment of Type II Diabetes Mellitus” (Bioorg Med Chem Lett, 2017).

One series concerns the target T1, Hexokinase-4 (Homo sapiens, UniProt P35557).
T1 sequence (P35557 whole entry): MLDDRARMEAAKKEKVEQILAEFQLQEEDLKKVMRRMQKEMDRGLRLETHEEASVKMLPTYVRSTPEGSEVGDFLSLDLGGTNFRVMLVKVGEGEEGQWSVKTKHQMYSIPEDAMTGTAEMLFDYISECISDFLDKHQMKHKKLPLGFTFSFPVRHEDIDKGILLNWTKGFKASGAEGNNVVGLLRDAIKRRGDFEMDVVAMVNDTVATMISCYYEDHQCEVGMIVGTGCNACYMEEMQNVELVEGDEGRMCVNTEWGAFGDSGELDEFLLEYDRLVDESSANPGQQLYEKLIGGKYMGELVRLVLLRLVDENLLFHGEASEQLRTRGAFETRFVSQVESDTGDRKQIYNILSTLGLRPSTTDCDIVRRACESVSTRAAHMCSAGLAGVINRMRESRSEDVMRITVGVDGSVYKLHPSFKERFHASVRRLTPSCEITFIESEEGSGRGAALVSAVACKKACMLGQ
Put plainly: Activation of recombinant human glucokinase assessed as conversion of D-glucose to D-glucose-6-phosphate in presence of 10 mM glucose by G6PDH coupled spectrophotometric assay.

Series [1] is described as follows: Apparent permeability of the compound. The series is classed as physicochemical. As to conditions: not told.
For series [2], the system named is Mus musculus. In words: Antidiabetic activity in HFD-fed C57BL/6 mouse assessed as decrease in blood glucose level at 10 to 30 mg/kg, ip. The series is classed as functional, organism-based.
For series [3], the system named is Mus musculus. In words: Antidiabetic activity in HFD-fed C57BL/6 mouse assessed as decrease in plasma insulin level at 30 mg/kg, ip. The series is classed as functional, organism-based.
A short description of series [4]: Oral bioavailability in mouse. The series is classed as ADME, organism-based. As to conditions: in vivo.
Series [5] can be described thus: Clearance in rat. It counts as ADME. Conditions: in vivo.
Series [6] is described as follows: Mean residence time in rat. It counts as ADME. As to conditions: in vivo.
The nature of series [7]: Half life in rat. The series is classed as ADME. As to conditions: in vivo.
A short description of series [8]: Oral bioavailability in rat. It counts as ADME, organism-based. As to conditions: in vivo.
Series [9] is described as follows: Total drug level in HFD-fed C57BL/6 mouse liver at 30 mg/kg, ip measured 4 hrs post dose. Conditions: read-out: Drug uptake. The series is classed as ADME, organism-based.
Series [10] can be described thus: Total drug level in HFD-fed C57BL/6 mouse pancreas at 30 mg/kg, ip measured 4 hrs post dose. The series is classed as ADME, organism-based. Conditions: read-out: Drug uptake.
Series [11] in a line: Total drug level in HFD-fed C57BL/6 mouse plasma at 30 mg/kg, ip measured 4 hrs post dose. The series is classed as ADME, organism-based.
Series [12] in a line: Ratio of drug level in HFD-fed C57BL/6 mouse liver to plasma at 30 mg/kg, ip measured 4 hrs post dose. The series is classed as ADME, organism-based.
Series [13] is described as follows: Ratio of drug level in HFD-fed C57BL/6 mouse pancreas to plasma at 30 mg/kg, ip measured 4 hrs post dose. The series is classed as ADME, organism-based.
Series [14] is described as follows: Ratio of drug level in HFD-fed C57BL/6 mouse liver to pancreas at 30 mg/kg, ip measured 4 hrs post dose. It counts as ADME, organism-based. As to conditions: in vivo.
For series [15], the system named is Mus musculus. Put plainly: Toxicity in HFD-fed C57BL/6 mouse assessed as increase in plasma insulin level at 10 mg/kg, ip. The series is classed as organism-based. Conditions: in vivo.
Series [16] relates to Mus musculus. In words: Antidiabetic activity in HFD-fed C57BL/6 mouse assessed as decrease in blood glucose level at 10 mg/kg, po. The series is classed as functional, organism-based.
The nature of series [17]: Ratio of drug level in HFD-fed C57BL/6 mouse liver to plasma at 10 mg/kg, po measured 4 hrs post dose. It counts as ADME, organism-based.
Series [18] can be described thus: Total drug level in HFD-fed C57BL/6 mouse plasma at 10 mg/kg, po measured 4 hrs post dose. It counts as ADME, organism-based.
Series [19] is described as follows: Total drug level in HFD-fed C57BL/6 mouse pancreas at 10 mg/kg, po measured 4 hrs post dose. The series is classed as ADME, organism-based. As to conditions: read-out: Drug uptake.
Series [20] in a line: Total drug level in HFD-fed C57BL/6 mouse liver at 10 mg/kg, po measured 4 hrs post dose. It counts as ADME, organism-based. As to conditions: read-out: Drug uptake.
Series [21] concerns Mus musculus. In words: Toxicity in HFD-fed C57BL/6 mouse assessed as increase in plasma insulin level at 10 mg/kg, po. The series is classed as organism-based. As to conditions: in vivo.
Series [22] is described as follows: Ratio of drug level in HFD-fed C57BL/6 mouse pancreas to plasma at 10 mg/kg, po measured 4 hrs post dose. The series is classed as ADME, organism-based.
The nature of series [23]: Ratio of drug level in HFD-fed C57BL/6 mouse liver to pancreas at 10 mg/kg, po measured 4 hrs post dose. Conditions: in vivo. The series is classed as ADME, organism-based.
Series [24] relates to Mus musculus. Put plainly: Antidiabetic activity in HFD-fed C57BL/6 mouse assessed as decrease in blood glucose level at 30 mg/kg, po. The series is classed as functional, organism-based.
Series [25] is described as follows: Fraction unbound in C57BL/6 mouse plasma. The series is classed as ADME, cell-free.
Series [26] concerns Mus musculus. In words: Toxicity in HFD-fed C57BL/6 mouse assessed as increase in plasma insulin level at 30 mg/kg, po. It counts as organism-based. Conditions: in vivo.
A short description of series [27]: Total drug level in HFD-fed C57BL/6 mouse liver at 3 mg/kg, po measured 4 hrs post dose. It counts as ADME, organism-based. Conditions: read-out: Drug uptake.
Series [28] in a line: Total drug level in HFD-fed C57BL/6 mouse pancreas at 3 mg/kg, po measured 4 hrs post dose. As to conditions: read-out: Drug uptake. It counts as ADME, organism-based.
Series [29] in a line: Total drug level in HFD-fed C57BL/6 mouse plasma at 3 mg/kg, po measured 4 hrs post dose. The series is classed as ADME, organism-based.
Series [30] can be described thus: Ratio of drug level in HFD-fed C57BL/6 mouse liver to plasma at 3 mg/kg, po measured 4 hrs post dose. It counts as ADME, organism-based.
A short description of series [31]: Ratio of drug level in HFD-fed C57BL/6 mouse pancreas to plasma at 3 mg/kg, po measured 4 hrs post dose. It counts as ADME, organism-based.
Series [32] is described as follows: Ratio of drug level in HFD-fed C57BL/6 mouse liver to pancreas at 3 mg/kg, po measured 4 hrs post dose. It counts as ADME, organism-based. Conditions: in vivo.
Series [33] is described as follows: Total drug level in HFD-fed C57BL/6 mouse liver at 30 mg/kg, po measured 4 hrs post dose. The series is classed as ADME, organism-based. As to conditions: read-out: Drug uptake.
A short description of series [34]: Total drug level in HFD-fed C57BL/6 mouse pancreas at 30 mg/kg, po measured 4 hrs post dose. The series is classed as ADME, organism-based. As to conditions: read-out: Drug uptake.
Series [35] in a line: Total drug level in HFD-fed C57BL/6 mouse plasma at 30 mg/kg, po measured 4 hrs post dose. The series is classed as ADME, organism-based.
A short description of series [36]: Ratio of drug level in HFD-fed C57BL/6 mouse liver to plasma at 30 mg/kg, po measured 4 hrs post dose. It counts as ADME, organism-based.
Series [37] in a line: Ratio of drug level in HFD-fed C57BL/6 mouse pancreas to plasma at 30 mg/kg, po measured 4 hrs post dose. It counts as ADME, organism-based.
Series [38] in a line: Ratio of drug level in HFD-fed C57BL/6 mouse liver to pancreas at 30 mg/kg, po measured 4 hrs post dose. Conditions: in vivo. The series is classed as ADME, organism-based.

Calls of active or inactive are those of the source. No cut-off for these calls is given here.

Take `COc1ccc(Sc2ccc(Sc3ccccn3)nc2C(=O)Nc2nc(CC(=O)O)c(Cl)s2)cc1`: the half-maximal effective concentration (EC50) – broadly, the concentration needed to bring the measured effect to its halfway point – at Hexokinase-4 was found to be 5.7 nM. In addition, the Papp (in general, the rate of passage across a membrane or cell layer, normalised by area and donor concentration) in [1] is 22 ×10⁻⁶ cm/s.

As to `COc1ccc(Sc2ccc(Sc3nncn3C)nc2C(=O)Nc2ncc(SCC(=O)O)s2)cc1`, the result with Mus musculus [2] and in the series on Mus musculus [3] was Active. In addition, the bioavailability (commonly dose-corrected exposure relative to a reference, in per cent) was 3% in [4] and 1 to 1.2% in [8]. In addition, the concentration for a half-maximal effect (EC50) on Hexokinase-4 stood at 51.5 nM. Moreover, the clearance – broadly, a measure of how efficiently the substance is removed, as volume per time – in series [5] was determined as 115 mL/min/kg. Besides, the mean residence time MRT (as a rule, the average time that molecules of a dose stay in the body) in series [6] amounted to 0.64 h. Further, in series [7], the half-life (commonly the time in which the quantity being followed falls by half) was 2 h. In addition, in series [1], the apparent permeability (Papp) turned out to be 2 ×10⁻⁶ cm/s. For the same molecule, the concentration at 4 h is 452 µM in series [9], 4 µM in [10] and 31 µM in [11]. Further, the Kp (usually tissue or fluid exposure divided by exposure in the circulation) at 4 h in [12] is 14.9; in series [13], 0.16. Further, in series [14], the Ratio was determined as 113. Besides, in the series with Mus musculus [15], the Activity result is on record as “Non-Toxic”.

Take `COc1ccc(Sc2ccc(Sc3ccccn3)nc2C(=O)Nc2nc(CC(=O)O)cs2)cc1`: at Hexokinase-4, the EC50 is 49 nM.

As for `Cc1ccc(Sc2ccc(Sc3nnc[nH]3)nc2C(=O)Nc2ncns2)cn1`, in the series on Mus musculus [16], the result was Active. The partition ratio (Kp) at 4 h in series [17] was determined as 4.5; in series [22], 0.5. Further, the concentration at 4 h in series [18] was 18.5 µM; in [19] it was 8.7 µM; in series [20], 77.7 µM. Further, the Activity entry with Mus musculus [21] was “Toxic”. Besides, the concentration giving a half-maximal response (EC50) on Hexokinase-4 amounted to 27.7 nM. In series [5], this molecule had a clearance of 1.9 mL/min/kg. The same molecule had a half-life in [7] of 2.7 h. The molecule further came in with a bioavailability in series [8] of 100%. Moreover, the Papp in [1] amounted to 21 ×10⁻⁶ cm/s. Besides, the Ratio in series [23] came to 8.9.

Turning to `O=C(O)Cc1nc(NC(=O)c2nc(Sc3ccccn3)ccc2Sc2ccc(F)cc2)sc1Cl`, the outcome with Mus musculus [16] and in the series on Mus musculus [24] was Active. Moreover, the Kp at 4 h is 12.4 in series [17]; 0.1 in series [22]; 17.7 in series [30]; 0.13 in series [31]; 6.7 in series [36]; 0.11 in series [37]. Further, the concentration at 4 h was determined as 4.5 µM in series [18]; 0.47 µM in series [19]; 51.5 µM in series [20]; 10.4 µM in series [27]; 0.074 µM in series [28]; 0.62 µM in [29]. For the same molecule, the concentration at 4 h in series [33] was 127 µM; in [34], 2.1 µM; in series [35], 19.6 µM. In addition, the Activity entry in the series with Mus musculus [21] was “Non-Toxic”; in the series on Mus musculus [26], “Toxic”. At Hexokinase-4, the 50% effective concentration (EC50) is 9.6 nM. This molecule also yielded a clearance in series [5] of 50 mL/min/kg. Besides, the mean residence time MRT in series [6] amounted to 1.4 h. The same molecule had a half-life in series [7] of 3.9 h. The molecule also gave a bioavailability in [8] of 25%. In addition, in series [1], the apparent permeability coefficient (Papp) came out at 25 ×10⁻⁶ cm/s. Moreover, the Ratio in [23] is 127 to 128; in series [32], 159; in [38] it was 70. The fraction unbound (in general, free concentration divided by total concentration) in series [25] stood at 0.049.

Regarding `COc1ccc(Sc2ccc(Sc3ccccn3)nc2C(=O)Nc2ncc(SCC(=O)O)s2)cc1`, at Hexokinase-4, the concentration giving a half-maximal response (EC50) was 14 nM. This molecule also showed a clearance in [5] of 28 mL/min/kg. Also, in [6], the mean residence time (MRT) amounted to 0.76 h. Besides, the half-life in [7] is 2.1 h. This molecule showed a bioavailability in series [8] of 57%. In series [1], the apparent permeability coefficient (Papp) worked out at 26 ×10⁻⁶ cm/s. For the same molecule, the unbound share (fraction unbound) in series [25] worked out at 0.003.

With `COc1ccc(Sc2ccc(Sc3ccccn3)nc2C(=O)Nc2ncc(CCC(=O)O)s2)cc1`, at Hexokinase-4, the EC50 worked out at 68.5 nM.
